Data on five compounds can be found in patent publication US6207709A, “N-substituted-2-amino-4-phenyl-4-oxo-butanoic acid compounds having kynurenine-3-hydroxy base inhibitory activity” (Pharmacia & Upjohn S.p.A., priority 1996, dated 2001).

One data set deals with T1, kynurenine-3-hydroxylase (Rattus norvegicus, UniProt O88867).
T1 construct: evaluated in rat brain homogenate; from tissue; host or cells: rat brain homogenate (washed 12000 x g pellet)
Briefly: Kynurenine-3-hydroxylase assay in the rat brain (homogenate). In kind it is biochemical. The following applies: L-kynurenine 50 μM, 60 min incubation, pH 7.5, read-out: IC 50, enzyme inhibition (rat brain). The procedure:
(A) Kynurenine-3-hydroxylase assay in the rat brain
Brain was homogenized in ice-cold 0.32 M sucrose and centrifuged at 12000×g for 30 min at 4° C. The pellet was washed three times with 0.32 M sucrose by centrifugation and suspended in 0.14 M KCl in 20 mM K-phosphate buffer at pH 7 (1 g tissue in 2 ml buffer).
The reaction mixture contained: 75 μl of suspended homogenate; 100 μl of substrate solution containing 50 mM K-phosphate buffer pH 7.5, 2 mM MgCl2, 0.4 mM NADPH and 50 μM L-kynurenine (final concentration): 25 μl of different concentrations of inhibitor solutions). The reaction was stopped by addition of 200 μl of 1 M HClO4 after 60 min incubation. L-3-hydroxykynurenine formed was quantified by HPLC with coulometric detection at a working voltage of +0.2 V. The column was a 10 cm C18 reversed phase (3 μm. The mobile phase consisted of 950 ml distilled water, 20 ml acetonitrile, 9 ml triethylamine, 5.9 ml phosphoric acid, 100 mg sodium EDTA and 1.5 g heptanesulfonic acid. The flow rate was 1 ml/min.

For data set [1], the system named is ionotropic excitatory aminoacid receptors. The following applies: preferentially acting at the glycine co-agonist site of the NMDA receptor; cited from earlier work.
Data set [2] concerns N-methyl-D-aspartate (NMDA) receptor. The following applies: cited from earlier work.
The test system of another data set is neuronal cell cultures. The note with it: relatively low QUIN concentrations; prolonged period of time or in combination with glutamate; cited from earlier work.
The conditions of data set [3]: cited from earlier work.

T1 sequence (O88867 whole entry): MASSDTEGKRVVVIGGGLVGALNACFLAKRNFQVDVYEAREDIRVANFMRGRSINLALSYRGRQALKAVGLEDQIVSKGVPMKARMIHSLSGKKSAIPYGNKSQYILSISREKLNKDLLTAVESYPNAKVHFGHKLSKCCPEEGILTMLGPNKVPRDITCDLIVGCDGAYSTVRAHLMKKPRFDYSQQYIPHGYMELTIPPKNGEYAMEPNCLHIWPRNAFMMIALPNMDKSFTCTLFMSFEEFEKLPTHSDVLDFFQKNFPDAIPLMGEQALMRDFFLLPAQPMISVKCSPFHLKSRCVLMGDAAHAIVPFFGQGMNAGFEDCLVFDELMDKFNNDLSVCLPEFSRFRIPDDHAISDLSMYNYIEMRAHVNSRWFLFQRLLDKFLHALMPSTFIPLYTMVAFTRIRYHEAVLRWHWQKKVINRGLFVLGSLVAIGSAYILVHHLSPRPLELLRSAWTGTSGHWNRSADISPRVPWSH

As to `O=C(CC(NC(=O)C(F)(F)F)C(=O)O)c1ccc(Cl)c(Cl)c1` (racemic) [FCE 29256, (R,S)-N-trifluoroacetyl-2-amino-4-oxo-4-(3',4'-dichlorophenyl)butanoic acid], the IC50 on kynurenine-3-hydroxylase was found to be 140 nM.
The same measure, in the same setting: under `O=C(CC(NC(=O)C(F)(F)F)C(=O)O)c1ccc(F)c(F)c1` (racemic) [FCE 29434, (R,S)-N-trifluoroacetyl-2-amino-4-oxo-4-(3',4'-difluorophenyl)butanoic acid] stands 270 nM.
Still for that read-out and setting: under `O=C(C[C@H](NC(=O)C(F)(F)F)C(=O)O)c1ccc(Cl)c(Cl)c1` [FCE 29435, (S)-N-trifluoroacetyl-2-amino-4-oxo-4-(3',4'-dichlorophenyl)butanoic acid] stands 240 nM.
As to `O=C(O)c1cc(=O)c2ccccc2[nH]1` [KYNA, kynurenic acid], in data set [1], the “antagonism at ionotropic excitatory aminoacid receptors (in words)” value is given as “broad spectrum antagonist”.
`O=C(O)c1cccnc1C(=O)O` [QUIN, quinolinic acid]: the “agonism at NMDA receptor (in words)” value in data set [2] is “highly selective agonist”. Moreover, the “neurotoxicity in neuronal cell cultures (in words)” value in the data set on neuronal cell cultures was “neurotoxic”. In data set [3], the “effect in vivo (in words)” value is “produce convulsions and axon sparing lesions”.
